Measured values taken from ChEMBL document CHEMBL3779776, “Synthesis and biological evaluation of 2-aroylbenzofurans, rugchalcones A, B and their derivatives as potent anti-inflammatory agents” (Bioorg Med Chem Lett, 2016).

How the values were obtained:
RAW264.7 [1] = assay: Antiinflammatory activity in mouse RAW264.7 cells assessed as inhibition of LPS-induced NO production after 18 hrs by Griess assay; format: functional, cell-based; settings: RAW264.7, 18 h
RAW264.7 [2] = assay: Antiinflammatory activity in mouse RAW264.7 cells assessed as inhibition of LPS-induced NO production at 1 uM after 18 hrs by Griess assay relative to control; format: functional; settings: RAW264.7, 18 h
RAW264.7 [3] = assay: Inhibition of LPS-induced iNOS expression in mouse RAW264.7 cells at 10 uM after 18 hrs by Western blot method relative to LPS; format: functional
[4] = Cytotoxicity against mouse RAW264.7 cells assessed as cell viability at 1 uM after 24 hrs by MTS assay relative to control; format: cell-based; settings: read-out: Activity
RAW264.7 [5] = assay: Antiinflammatory activity in mouse RAW264.7 cells assessed as inhibition of LPS-induced NO production at 10 uM after 18 hrs by Griess assay relative to control; format: functional; settings: RAW264.7, 18 h
[6] = Cytotoxicity against mouse RAW264.7 cells assessed as cell viability at 10 uM after 24 hrs by MTS assay relative to control; format: cell-based; settings: read-out: Activity

IC50 (RAW264.7 [1]) [µM] | Compound | inhibition at 1 µM (RAW264.7 [2]) [%] | fold change (FC) (RAW264.7 [3]) | viability at 24 h, 1 µM [4] [%] | inhibition at 10 µM (RAW264.7 [5]) [%] | viability at 24 h, 10 µM [6] [%]
4.13 | COc1cc2oc(C(=O)c3ccc(O)cc3)cc2cc1O | 0 | 0.26 | 97.9 | 99.3 | 93.1
10.8 | COc1ccc(C(=O)c2cc3cc(O)c(OC)cc3o2)cc1 | 16.2 | 0.52 | 98.1 | 43 | 100
10.4 | COc1cc2cc(C(=O)c3ccc(O)cc3)oc2cc1OC | 8.6 | 0.46 | 106 | 25.8 | 102
0.57 | COc1cc2cc(C(=O)c3ccc(O)cc3)oc2cc1O | 54.2 | 0.18 | 98.1 | 99.6 | 95.9
11.8 | COc1ccc(C(=O)c2cc3cc(OC)c(OC)cc3o2)cc1 | 9.5 | 0.65 | 105 | 29.8 | 98.6
13.3 | COc1ccc(C(=O)c2cc3cc(OC)c(O)cc3o2)cc1 | 7.8 | 0.77 | 93.2 | 29.7 | 91.8
1.9 | COc1ccc(C(=O)c2cc3cc(O)c(O)cc3o2)cc1 | 19.7 | 0.19 | 95.1 | 96.8 | 101
0.99 | O=C(c1ccc(O)cc1)c1cc2cc(O)c(O)cc2o1 | 42.9 | 0.36 | 106 | 74.3 | 100
2.69 | CNC(=N)NCCC[C@H](N)C(=O)O [TILARGININE] | 20.9 |  | 98.6 | 92.4 | 97.6
